For 15 compounds, T/C results are on record in PubChem BioAssay AID248 (DTP/NCI, 2004).

Several values for one entry are separate records, joined by “and”; a condition that tells them apart may be missing. Equal values may be shown once. Inconclusive results and toxic doses are left out.

The test system of the assay is L1210 leukemia ip in BDF1 mice, survival T/C. As to the kind of experiment: NCI In Vivo Anticancer Drug Screen. Data for tumor model L1210 Leukemia (intraperitoneal) in B6D2F1 (BDF1) mice. To be noted: higher = longer survival. In outline: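 Value reflects the ratio of survival in compound-treated mice to survival in vehicle-treated controls, with both groups carrying the same transplanted tumor.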

The mark [1] stands for this setting: endpoint: mean survival time, dose: 100.0 mg/kg/injection, schedule: Q01DX009 (ip), vehicle: saline.
[2] abbreviates: endpoint: mean survival time, dose: 200.0 mg/kg/injection, schedule: Q01DX009 (ip), vehicle: saline.
[3] abbreviates: endpoint: mean survival time, dose: 400.0 mg/kg/injection, schedule: Q01DX009 (ip), vehicle: saline.
The mark [4] stands for this setting: endpoint: mean survival time, dose: 100.0 mg/kg/injection, schedule: Q01DX001 (ip), vehicle: saline.
Where [5] appears, read: endpoint: mean survival time, dose: 100.0 mg/kg/injection, schedule: Q01DX009 (ip), vehicle: Klucel (hydroxypropylcellulose) (HPC).
Setting [6] is: endpoint: mean survival time, dose: 200.0 mg/kg/injection, schedule: Q01DX009 (ip), vehicle: Klucel (hydroxypropylcellulose) (HPC).
Where [7] appears, read: endpoint: mean survival time, dose: 100.0 mg/kg/injection, schedule: Q04DX003 (ip), vehicle: Klucel (hydroxypropylcellulose) (HPC).
[8] abbreviates: endpoint: mean survival time, dose: 200.0 mg/kg/injection, schedule: Q04DX003 (ip), vehicle: Klucel (hydroxypropylcellulose) (HPC).
[9] abbreviates: endpoint: mean survival time, dose: 400.0 mg/kg/injection, schedule: Q04DX003 (ip), vehicle: Klucel (hydroxypropylcellulose) (HPC).
Where [10] appears, read: endpoint: mean survival time, dose: 400.0 mg/kg/injection, schedule: Q01DX009 (ip), vehicle: other.
The mark [11] stands for this setting: endpoint: mean survival time, dose: 100.0 mg/kg/injection, schedule: Q04DX003 (ip), vehicle: saline with Tween-80.
[12] abbreviates: endpoint: mean survival time, dose: 200.0 mg/kg/injection, schedule: Q04DX003 (ip), vehicle: saline with Tween-80.

On to `CCOc1ccc(NC(=O)c2cccc(Cl)c2)cc1`, for which the T/C under setting [1] is 109 % of control, the T/C under setting [2] was 96 % of control and the T/C under setting [3] is 96 % of control.

With `CC(=O)NC(Cc1cnc[nH]1)C(=O)O` (centres undefined), the T/C reads like this: under setting [4], 97 % of control; (endpoint: mean survival time, dose: 200.0 mg/kg/injection, schedule: Q01DX001 (ip), vehicle: saline) 98 % of control; (endpoint: mean survival time, dose: 400.0 mg/kg/injection, schedule: Q01DX001 (ip), vehicle: saline) 97 % of control.

For the compound `NC(=Nc1ccc(N)cc1)c1ccc(C(N)=Nc2ccc(N)cc2)cc1`, the T/C (endpoint: mean survival time, dose: 2.5 mg/kg/injection, schedule: Q01DX015 (ip), vehicle: water) is 98 % of control; the T/C (endpoint: mean survival time, dose: 5.0 mg/kg/injection, schedule: Q01DX015 (ip), vehicle: water) is 100 % of control; the T/C (endpoint: mean survival time, dose: 10.0 mg/kg/injection, schedule: Q01DX015 (ip), vehicle: water) is 114 % of control; the T/C (endpoint: mean survival time, dose: 20.0 mg/kg/injection, schedule: Q01DX015 (ip), vehicle: water) was 100 % of control; the T/C (endpoint: mean survival time, dose: 36.7 mg/kg/injection, schedule: Q01DX015 (ip), vehicle: water) was 109 % of control; the T/C (endpoint: mean survival time, dose: 73.5 mg/kg/injection, schedule: Q01DX015 (ip), vehicle: water) was 105 % of control.

Take `COC(=O)C1OC1C(=O)OC` (centres undefined): the T/C under setting [5] is 91 % of control; the T/C under setting [1] was 101 % of control; the T/C under setting [6] was 96 % of control; the T/C under setting [2] is 100 % of control; the T/C (endpoint: mean survival time, dose: 400.0 mg/kg/injection, schedule: Q01DX009 (ip), vehicle: Klucel (hydroxypropylcellulose) (HPC)) was 102 % of control; the T/C under setting [3] is 92 % of control.

Regarding `COc1c2c(cc3c1OCO3)[C@@]13CCN(C2)[C@@H]1CC=C[C@H]3O`, the T/C is 105 % of control (endpoint: mean survival time, dose: 5.0 mg/kg/injection, schedule: Q01DX001 (ip), vehicle: carboxymethylcellulose (CMC)) and 105 % of control (endpoint: mean survival time, dose: 10.0 mg/kg/injection, schedule: Q01DX001 (ip), vehicle: carboxymethylcellulose (CMC)).

For `C=COCCCCCC(C)C`, the T/C was 96 % of control (endpoint: mean survival time, dose: 50.0 mg/kg/injection, schedule: Q01DX009 (ip), vehicle: Klucel (hydroxypropylcellulose) (HPC)); 106 % of control under setting [5]; 107 % of control under setting [7]; 91 % of control under setting [6]; 105 % of control under setting [8]; 104 % of control under setting [9].

As for `CCOC(=O)c1[nH]c(=S)n(-c2ccccc2)c1C(=O)OCC`, the T/C runs as follows: (endpoint: mean survival time, dose: 100.0 mg/kg/injection, schedule: Q01DX001 (ip), vehicle: other) 97 % of control; (endpoint: mean survival time, dose: 100.0 mg/kg/injection, schedule: Q01DX009 (ip), vehicle: other) 94 % of control and 95 % of control; (endpoint: mean survival time, dose: 100.0 mg/kg/injection, schedule: Q04DX002 (ip), vehicle: other) 93 % of control and 87 % of control; (endpoint: mean survival time, dose: 200.0 mg/kg/injection, schedule: Q01DX001 (ip), vehicle: other) 108 % of control; (endpoint: mean survival time, dose: 200.0 mg/kg/injection, schedule: Q01DX009 (ip), vehicle: other) 94 % of control and 115 % of control; (endpoint: mean survival time, dose: 200.0 mg/kg/injection, schedule: Q04DX002 (ip), vehicle: other) 96 % of control and 97 % of control. Also, the T/C runs as follows: (endpoint: mean survival time, dose: 400.0 mg/kg/injection, schedule: Q01DX001 (ip), vehicle: other) 103 % of control; under setting [10], 112 % of control and 90 % of control; (endpoint: mean survival time, dose: 400.0 mg/kg/injection, schedule: Q04DX002 (ip), vehicle: other) 93 % of control and 114 % of control.

As to `ClC(c1ccccc1)c1ccc(Br)cc1` (centres undefined), the T/C was 108 % of control under setting [7], 101 % of control under setting [8] and 90 % of control under setting [9].

Take `CCCCN(C)N=Nc1ccc(CCC(=O)OCC)cc1`: the T/C is, setting by setting: (endpoint: mean survival time, dose: 72.5 mg/kg/injection, schedule: Q01DX009 (ip), vehicle: saline with Tween-80) 121 % of control; (endpoint: mean survival time, dose: 177.0 mg/kg/injection, schedule: Q01DX009 (ip), vehicle: other) 117 % of control; (endpoint: mean survival time, dose: 187.0 mg/kg/injection, schedule: Q01DX Z (ip), vehicle: saline) 117 % of control; (endpoint: mean survival time, dose: 207.0 mg/kg/injection, schedule: Q01DX001 (ip), vehicle: saline with Tween-80) 111 % of control; (endpoint: mean survival time, dose: 266.0 mg/kg/injection, schedule: Q01DX007 (ip), vehicle: saline) 160 % of control; (endpoint: mean survival time, dose: 290.0 mg/kg/injection, schedule: Q01DX009 (ip), vehicle: saline with Tween-80) 171 % of control. Further, the T/C (endpoint: mean survival time, dose: 400.0 mg/kg/injection, schedule: Q01DX007 (ip), vehicle: saline) is 171 % of control; the T/C under setting [10] is 162 % of control; the T/C (endpoint: mean survival time, dose: 414.5 mg/kg/injection, schedule: Q01DX001 (ip), vehicle: saline with Tween-80) was 119 % of control; the T/C (endpoint: mean survival time, dose: 600.0 mg/kg/injection, schedule: Q01DX009 (ip), vehicle: other) was 179 % of control; the T/C (endpoint: median survival time, dose: 200.0 mg/kg/injection, schedule: Q04DX003 (ip), vehicle: Klucel (hydroxypropylcellulose) (HPC)) is 111 % of control; the T/C (endpoint: median survival time, dose: 800.0 mg/kg/injection, schedule: Q01DX009 (ip), vehicle: saline) is 187 % of control.

Take `CCCCC#CC(=O)OCCCC`: the T/C by setting is: (endpoint: mean survival time, dose: 100.0 mg/kg/injection, schedule: Q04DX002 (ip), vehicle: saline) 94 % of control; (endpoint: mean survival time, dose: 200.0 mg/kg/injection, schedule: Q04DX002 (ip), vehicle: saline) 97 % of control; (endpoint: mean survival time, dose: 400.0 mg/kg/injection, schedule: Q04DX002 (ip), vehicle: saline) 102 % of control.

Regarding `CN=C(N)C(N)=NC`, the T/C under setting [11] is 104 % of control; the T/C under setting [12] was 102 % of control; the T/C (endpoint: mean survival time, dose: 400.0 mg/kg/injection, schedule: Q04DX003 (ip), vehicle: saline with Tween-80) was 95 % of control.

On to `c1ccc2c(CCCCc3nccc4ccccc34)nccc2c1`, for which the T/C was 102 % of control (endpoint: mean survival time, dose: 100.0 mg/kg/injection, schedule: Q04DX002 (ip), vehicle: Klucel (hydroxypropylcellulose) (HPC)); 97 % of control (endpoint: mean survival time, dose: 200.0 mg/kg/injection, schedule: Q04DX002 (ip), vehicle: Klucel (hydroxypropylcellulose) (HPC)); 89 % of control (endpoint: mean survival time, dose: 400.0 mg/kg/injection, schedule: Q04DX002 (ip), vehicle: Klucel (hydroxypropylcellulose) (HPC)).

For `O=NN(CCCl)C(=O)NC1CCCC1`, the T/C (endpoint: mean survival time, dose: 3.0 mg/kg/injection, schedule: Q01DX001 (ip), vehicle: saline) was 108 % of control; the T/C (endpoint: mean survival time, dose: 6.0 mg/kg/injection, schedule: Q01DX001 (ip), vehicle: saline) was 108 % of control; the T/C (endpoint: mean survival time, dose: 12.0 mg/kg/injection, schedule: Q01DX001 (ip), vehicle: saline) was 112 % of control; the T/C (endpoint: mean survival time, dose: 18.0 mg/kg/injection, schedule: Q01DX001 (ip), vehicle: saline) was 118 % of control; the T/C (endpoint: mean survival time, dose: 25.0 mg/kg/injection, schedule: Q01DX001 (ip), vehicle: saline) is 162 % of control; the T/C (endpoint: mean survival time, dose: 30.0 mg/kg/injection, schedule: Q01DX001 (ip), vehicle: saline) is 222 % of control. The T/C by setting is: (endpoint: mean survival time, dose: 44.0 mg/kg/injection, schedule: Q01DX001 (ip), vehicle: saline) 302 % of control; (endpoint: mean survival time, dose: 50.0 mg/kg/injection, schedule: Q01DX001 (ip), vehicle: saline) 328 % of control; (endpoint: mean survival time, dose: 67.0 mg/kg/injection, schedule: Q01DX001 (ip), vehicle: saline) 278 % of control; (endpoint: mean survival time, dose: 93.0 mg/kg/injection, schedule: Q01DX001 (ip), vehicle: saline) 243 % of control; under setting [4], 224 % of control and 333 % of control; (endpoint: mean survival time, dose: 150.0 mg/kg/injection, schedule: Q01DX001 (ip), vehicle: saline) 295 % of control. The T/C is 197 % of control (endpoint: mean survival time, dose: 187.0 mg/kg/injection, schedule: Q01DX001 (ip), vehicle: saline); 283 % of control (endpoint: mean survival time, dose: 375.0 mg/kg/injection, schedule: Q01DX001 (ip), vehicle: saline); 327 % of control (endpoint: mean survival time, dose: 500.0 mg/kg/injection, schedule: Q01DX001 (ip), vehicle: saline).

For the compound `O=C(NC/C(Br)=C/Br)c1ccccc1`, the T/C under setting [7] is 96 % of control, the T/C under setting [8] was 100 % of control and the T/C under setting [9] was 96 % of control.

`CC1(C)N=C(N)N=C(N)N1NC(=O)c1ccc(Cl)cc1`: the T/C reads like this: under setting [11], 100 % of control; under setting [12], 103 % of control.
